From BindingDB's records for doi:10.1016/s0960-894x(02)00382-7 (Novartis Pharma, 2002)

Target: Substance-P receptor (Bos taurus)
Assay: inhibition of [3H]Sar-SP binding to Tachykinin receptor 1 of bovine retina membranes

IC50	SMILES
34 nM	CN(C(=O)c1cc(C(F)(F)F)cc(C(F)(F)F)c1)c1cc(C(=O)NC2CCCCC2)ccc1-c1ccc(F)cc1 [2-[(3,5-Bis-trifluoromethyl-benzoyl)-methyl-amino]-4'-fluoro-biphenyl-4-carboxylic acid cyclohexylamide]
4 nM	CN(C)C(=O)c1ccc(-c2ccc(Cl)cc2)c(N(C)C(=O)c2cc(C(F)(F)F)cc(C(F)(F)F)c2)c1 [2-[(3,5-Bis-trifluoromethyl-benzoyl)-methyl-amino]-4'-chloro-biphenyl-4-carboxylic acid dimethylamide]
6 nM	Cc1ccc(-c2ccc(C(=O)N[C@@H]3CCCCNC3=O)cc2N(C)C(=O)c2cc(C(F)(F)F)cc(C(F)(F)F)c2)cc1
2.7 nM	CN(C(=O)c1cc(C(F)(F)F)cc(C(F)(F)F)c1)c1cc(C(=O)N[C@@H]2CCCCNC2=O)ccc1-c1ccc(Cl)cc1
0.8 nM	CN(C(=O)c1cc(C(F)(F)F)cc(C(F)(F)F)c1)c1cc(C(=O)N[C@@H]2CCCCNC2=O)ccc1-c1ccc(Cl)c(Cl)c1
1 nM	CN(C)CCCNC(=O)c1ccc(-c2ccc(Cl)cc2)c(N(C)C(=O)c2cc(C(F)(F)F)cc(C(F)(F)F)c2)c1 [2-[(3,5-Bis-trifluoromethyl-benzoyl)-methyl-amino]-4'-chloro-biphenyl-4-carboxylic acid (3-dimethylamino-propyl)-amide]
1 nM	CN(C(=O)c1cc(C(F)(F)F)cc(C(F)(F)F)c1)c1cc(C(=O)N[C@@H]2CCCCNC2=O)ccc1-c1ccc(F)cc1
13 nM	COc1cc(C(=O)N(C)c2cc(C(=O)N[C@@H]3CCCCNC3=O)ccc2-c2ccc(Cl)cc2)cc(OC)c1OC
0.7 nM	COc1cc(C(=O)Nc2cc(C(=O)NC3CCCCNC3=O)ccc2-c2ccc(Cl)cc2)cc(OC)c1OC (centres undefined) [4'-Chloro-2-(3,4,5-trimethoxy-benzoylamino)-biphenyl-4-carboxylic acid (2-oxo-azepan-3-yl)-amide]
